These results are taken from patent publication US4504492A, “Pharmaceutical amides, and preparation, formulations and use thereof” (Burroughs Wellcome Co., priority 1981, dated 1985).

The target of experiment [1] is T1, `Enkephalinase` (Mus musculus, UniProt Q61391).
T1 construct: The lung and brain (less cerebellum) were rapidly dissected, weighed and homogenised; from tissue; host or cells: mouse lung and brain (less cerebellum) homogenate
T1 sequence (Q61391 1-750): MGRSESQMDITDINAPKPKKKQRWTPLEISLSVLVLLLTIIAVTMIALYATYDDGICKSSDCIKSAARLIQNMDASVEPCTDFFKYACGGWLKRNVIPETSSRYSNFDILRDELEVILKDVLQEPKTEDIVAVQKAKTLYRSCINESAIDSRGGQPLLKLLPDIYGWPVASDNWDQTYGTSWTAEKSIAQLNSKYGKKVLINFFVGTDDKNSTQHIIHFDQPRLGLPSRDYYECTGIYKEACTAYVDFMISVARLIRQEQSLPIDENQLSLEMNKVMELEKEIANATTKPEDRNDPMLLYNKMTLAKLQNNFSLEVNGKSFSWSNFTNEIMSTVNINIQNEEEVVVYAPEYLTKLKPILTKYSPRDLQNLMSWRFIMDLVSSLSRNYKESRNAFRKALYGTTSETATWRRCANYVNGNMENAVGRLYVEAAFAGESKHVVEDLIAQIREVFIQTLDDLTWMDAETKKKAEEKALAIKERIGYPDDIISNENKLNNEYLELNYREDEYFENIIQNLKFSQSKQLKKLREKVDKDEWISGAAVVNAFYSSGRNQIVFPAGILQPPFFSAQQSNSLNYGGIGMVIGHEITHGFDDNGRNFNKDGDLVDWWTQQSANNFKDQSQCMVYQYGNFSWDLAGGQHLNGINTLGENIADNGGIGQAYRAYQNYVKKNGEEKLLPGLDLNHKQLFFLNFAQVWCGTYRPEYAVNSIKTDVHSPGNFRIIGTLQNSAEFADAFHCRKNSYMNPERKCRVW
The experiment in a line: Activity ex vivo: `enkephalinase` activity in lung and brain homogenates of mice dosed i.p. with test compound. The conditions noted are these: for ED50: mouse, ip, 0.25 h; for Lung/Brain (ED50 ratio): ratio of apparent ED50 values for lung and brain, 15 min. The procedure:
Mice were dosed i.p. with 0-30 mg/Kg of test compound suspended in 0.25% w/v celacol/0.85% w/v saline. The mice were killed 15 minutes after administration of the doses. The lung and brain (less cerebellum) were rapidly dissected, weighed and homogenised in 100 mM tris-HCl pH 7.4 buffer containing 1 uM Captopril to give a 9.1% W/V homogenate. `Enkephalinase` activity in the homogenate was measured by incubation at 37° C. with 100 μM [^3 H]-D-Tyr-D-Ala-L-Gly-L-Gly-L-Phe-L-leu for 10 minutes (lung) or 30 minutes (brain).

Experiment [2] deals with ACE and enkephalinase. The conditions noted are these: specificity for ACE over enkephalinase; Swerts et al; cited from earlier work.
Experiment [3] concerns the target T2, enkephalinase Al (Rattus norvegicus, UniProt P07861).
T2 construct: from tissue; host or cells: rat striatum (membrane pellet, Triton X-100 solubilised, DEAE-cellulose and Sephacryl S-300)
T2 sequence (P07861 1-750): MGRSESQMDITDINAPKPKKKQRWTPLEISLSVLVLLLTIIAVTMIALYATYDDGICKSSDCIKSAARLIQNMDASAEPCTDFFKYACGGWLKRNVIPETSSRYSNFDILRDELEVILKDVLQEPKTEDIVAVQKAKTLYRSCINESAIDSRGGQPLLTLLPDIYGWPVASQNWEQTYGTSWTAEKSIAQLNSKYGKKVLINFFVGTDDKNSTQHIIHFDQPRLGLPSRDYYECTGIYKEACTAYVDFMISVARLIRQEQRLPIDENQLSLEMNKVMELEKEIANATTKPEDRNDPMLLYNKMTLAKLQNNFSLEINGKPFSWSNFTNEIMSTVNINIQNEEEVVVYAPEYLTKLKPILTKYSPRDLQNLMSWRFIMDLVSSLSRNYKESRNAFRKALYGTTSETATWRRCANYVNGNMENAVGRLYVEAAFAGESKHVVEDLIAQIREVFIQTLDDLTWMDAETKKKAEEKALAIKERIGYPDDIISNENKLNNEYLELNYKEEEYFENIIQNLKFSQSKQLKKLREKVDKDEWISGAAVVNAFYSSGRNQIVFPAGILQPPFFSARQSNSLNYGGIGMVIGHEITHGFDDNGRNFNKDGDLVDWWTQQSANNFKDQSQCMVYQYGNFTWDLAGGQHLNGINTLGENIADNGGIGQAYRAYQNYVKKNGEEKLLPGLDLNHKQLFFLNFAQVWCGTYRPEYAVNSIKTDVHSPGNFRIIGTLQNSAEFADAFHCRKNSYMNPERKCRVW
The experiment in a line: Enkephalinase-inhibiting activity in vitro (3H-TGG generation from 3H-leucine enkephalin by purified enkephalinase Al). The experiment is classed as biochemical. The conditions noted are these: approximate, determined graphically; leucine enkephalin 5×10^-5 M, 30° C., 30 mins with enzyme; read-out: IC50 (concentration of test compound required for 50% inhibition of 3H-TGG generation). The procedure:
The compounds were investigated for enkephalinase inhibiting activity using the following method.
Rats were killed by decapitation and the striata dissected out on ice. The pooled tissues were homogenised on ice-cold Tris/hydrochloric acid buffer (50 mM, pH 7.70, 30 ml per gram of tissue) and centrifuged (50,000 g, 15 mins). The resulting supernatent was discarded and the remaining pellet washed three times. The washed pellet was solubilised by resuspension in half the volume of buffer as before containing 1.0% (v/v) Triton X-100 and incubated at 37° C. for 45 mins. The suspension was then centrifuged at 100,000 g for 60 mins and the solubilised enzymes contained in the supernatant separated by DEAE-cellulose column chromatography. Enkephalinase Al was further purified by Sephacryl S.300 chromatograph.
Enkephalinase-inhibiting activity was estimated by the following procedure.
Separation of (a) unchanged ^3 H-leucine enkephalin and (b) ^3 H-Tyr-Gly-OH(^3 H-TGG), generated from (a) by enkephalinase Al in the incubation mixture was effected by thin layer chromatography (plastic silica gel plates of 0.1 mm layer thickness, solvent system ethyl acetate:propan-2-ol:5% (v/v) acetic acid, 2:2:1) using solutions of the cold compounds as carriers. After drying the materials were visualized with ninhydrin and appropriate areas of the plates cut out and placed in scintillation vials containing 50% methanol/0.1M hydrochloric acid to elute the ^3 H label. Bioflor reagent (10 ml) was then added and the radioactivity determined by liquid scintillation counting.

Where [4] appears, read: brain (less cerebellum) homogenate, 15 minutes after administration, read-out: Apparent ED50 Brain.
Setting [5] is: lung homogenate, 15 minutes after administration, read-out: Apparent ED50 Lung.

Where two headings read alike, the source gives them in different places. A value given as a limit tells only on which side of the number the result lay.

Consider `O=C(O)CNC(=O)C(CS)Cc1ccccc1` (racemic) [Thiorphan, (DL-3-mercapto-2-benzylpropanoyl)-glycine, reference compound], for which the ED50 in experiment [1] (setting [4]) is 3.92 µmol/kg; in experiment [1] (setting [5]), 0.69 µmol/kg.
For `C[C@H](CS)C(=O)N1CCC[C@H]1C(=O)O` [Captopril, 1-(D-3-mercapto-2-methylpropanoyl)-L-proline (S,S)], the “concentration required to inhibit ACE by 50% lower than that required for the same inhibition of enkephalinase” value in experiment [2] is on record as “approximately 1000 fold”.
For the compound `CC(C)C[C@H](NC(=O)C(Cc1ccccc1)C(=O)NO)C(=O)O` (stereo partly drawn) [Compound 1, N-[2-(N-Hydroxycarbamoyl)-3-phenylpropanoyl]-L-leucine], the IC50 in experiment [3] came out at 19 nM. Moreover, the figures for the median effective dose (ED50) in experiment [1] (setting [4]) and in experiment [1] (setting [5]) were 14.6 µmol/kg and 6.1 µmol/kg, respectively. The “Lung/Brain (ED50 ratio)” value in experiment [1] turned out to be 2.4.
Regarding `CC(C)C[C@H](NC(=O)C(Cc1ccc(C(C)C)cc1)C(=O)NO)C(=O)O` (stereo partly drawn) [Compound 2, N-[2-(N-Hydroxycarbamoyl)-3-(4-isopropylphenyl)propanoyl]-L-leucine], in experiment [3], the IC50 was found to be 120 nM.
For `COc1ccc(CC(C(=O)NO)C(=O)N[C@@H](CC(C)C)C(=O)O)cc1` (stereo partly drawn) [Compound 3, N-[2-(N-Hydroxycarbamoyl)-3-(4-methoxyphenyl)-propanoyl]-L-leucine], the IC50 in experiment [3] stood at 750 nM.
Turning to `CCOC(=O)[C@H](CC(C)C)NC(=O)C(Cc1ccccc1)C(=O)NO` (stereo partly drawn) [Compound 4, Ethyl N-[(DL)-2-hydroxycarbamoyl)-3-phenylpropanoyl]-L-leucinate], the results for the ED50 in experiment [1] (setting [4]) and in experiment [1] (setting [5]) were > 85.7 µmol/kg and 8.6 µmol/kg, respectively. Moreover, the “Lung/Brain (ED50 ratio)” value in experiment [1] is listed as > 10.
Regarding `CC(C)C[C@H](NC(=O)C(Cc1ccccc1)C(=O)NO)C(=O)OC(C)(C)C` (stereo partly drawn) [Compound 6, Tert-butyl N-[(DL)-2-hydroxycarbamoyl)-3-phenylpropanoyl]-L-leucinate], the “Apparent ED50 Brain” value in experiment [1] (brain (less cerebellum) homogenate, 15 minutes after administration) is given as “No inhibn. at 26.5”. For the same compound, the ED50 in experiment [1] (setting [5]) is > 26.5 µmol/kg.
As for `CC(C)C[C@H](NC(=O)C(Cc1ccc([N+](=O)[O-])cc1)C(=O)NO)C(=O)O` (stereo partly shown) [Compound 9], the IC50 in experiment [3] was found to be 520 nM.
Take `CC(C)C[C@H](NC(=O)C(Cc1ccc(Br)cc1)C(=O)NO)C(=O)O` (stereo partly shown) [Compound 10]: the IC50 in experiment [3] was determined as 60 nM.

Broadly, the ED50 is the dose that gives a 50% effect, or the effect in half of the subjects.
